According to paper PMC2652249 (Biochemistry, 2008):
Several values for one entry are separate records, joined by “and”; a condition that tells them apart may be missing. Equal values may be shown once. Entries after “also recorded” stand apart in the source; their conditions may differ. Read-outs that look alike come from different tables or passages of the source.

Legend:
DNA polymerase X (Pol X) [1] = target: T1, DNA polymerase X (Pol X) (African swine fever virus, UniProt P42494); assay: biochemical; type: biochemical
DNA polymerase X (Pol X) [2] = target: T1, DNA polymerase X (Pol X)
DNA polymerase X (Pol X) [3] = target: T1, DNA polymerase X (Pol X); details: cited from earlier work

T1 sequence (P42494 whole entry, looked up): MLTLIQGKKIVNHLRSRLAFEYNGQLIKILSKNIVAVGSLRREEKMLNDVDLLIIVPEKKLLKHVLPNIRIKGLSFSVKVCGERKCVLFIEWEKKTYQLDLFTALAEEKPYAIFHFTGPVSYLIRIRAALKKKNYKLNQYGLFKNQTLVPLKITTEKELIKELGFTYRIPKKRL

Row | SMILES | inhibition of Pol X by PPi (DNA polymerase X (Pol X) [1]) | Km (DNA polymerase X (Pol X) [1]) | Vmax (DNA polymerase X (Pol X) [1]) | global fitting Vmax (DNA polymerase X (Pol X) [1]) | Km (DNA polymerase X (Pol X) [1]; read-out: global fitting Km) | single-exponential rate k of fluorescence change (DNA polymerase X (Pol X) [2]) | incorporation under the steady-state conditions (DNA polymerase X (Pol X) [1]) | Ki (DNA polymerase X (Pol X) [1]; global fitting KI) | turnover rate slower than the rate of correct dG:dCTP incorporation (DNA polymerase X (Pol X) [3]) | Kd (DNA polymerase X (Pol X) [3]; read-out: KD,app) | k1 of fluorescence change (double-exponential) (DNA polymerase X (Pol X) [2]) | k2 of fluorescence change (double-exponential) (DNA polymerase X (Pol X) [2])
1 | O=P(O)(O)OP(=O)(O)O [PPi, Pyrophosphate] | not inhibited noticeably; also recorded: modest inhibition |  |  |  |  |  |  |  |  |  |  | 
2 | Nc1ccn([C@H]2C[C@H](O)[C@@H](COP(=O)(O)OP(=O)(O)OP(=O)(O)O)O2)c(=O)n1 [dCTP] |  | 32 µM and 45 µM | 0.52 ± 0.02 nmol/min and 0.49 ± 0.02 nmol/min | 0.51 nmol/min and 0.47 nmol/min | 35 µM and 41 µM | 1.64 s⁻¹ and 1.64 ± 0.01 s⁻¹ |  |  |  |  |  | 
3 | Nc1ncnc2c1ncn2[C@H]1C[C@H](O)[C@@H](COP(=O)(O)OP(=O)(O)OP(=O)(O)O)O1 [dATP] |  |  |  | 1.51 nmol/min | 13 µM |  | no detectable incorporation | 48 µM and 150 µM | 430 fold | 80 µM | 5.92 ± 0.21 s⁻¹ | 1.17 ± 0.02 s⁻¹
